Key:
Test in all cases: fluorogenic hydrolysis, Michaelis-Menten
C. antarctica lipase = type: biochemical, Moesziomyces antarcticus; settings: enzyme 10 μg/mL
B. subtilis esterase = type: biochemical, Bacillus subtilis; settings: enzyme 0.5 μg/mL
PLE = type: biochemical, Sus scrofa
M. miehei lipase = target: T1, M. miehei lipase (Rhizomucor miehei, UniProt P19515); type: biochemical; settings: enzyme 10 μg/mL
T1 sequence (P19515 95-363): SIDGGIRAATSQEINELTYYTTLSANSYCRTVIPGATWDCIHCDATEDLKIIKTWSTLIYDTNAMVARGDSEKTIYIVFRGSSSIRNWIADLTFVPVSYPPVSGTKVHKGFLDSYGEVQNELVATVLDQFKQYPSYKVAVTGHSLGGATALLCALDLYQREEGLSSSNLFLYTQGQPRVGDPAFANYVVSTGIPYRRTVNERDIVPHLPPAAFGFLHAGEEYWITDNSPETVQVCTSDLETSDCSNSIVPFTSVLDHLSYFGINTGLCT

Row | Molecule | Km (C. antarctica lipase) [µM] | Km (B. subtilis esterase) [µM] | Km (PLE; enzyme 0.050 μg/mL) [µM] | Km (M. miehei lipase) [µM] | Km (PLE; enzyme 0.5 μg/mL) [µM]
1 | CC(=O)OCOc1ccc2nc3ccc(=O)cc-3oc2c1 [Res-AME] | 6.8 ± 0.4 | 19 ± 2 | 4.9 ± 0.7 | – | –
2 | DDAO-AME 1 | 9.5 ± 1.1 | 6.7 ± 0.5 | – | 4.4 ± 0.7 | 7.5 ± 0.8

Reference: paper PMC5096734 (Chembiochem : a European journal of chemical biology, 2014)
